According to patent US7709223B2, “Method for detecting bacteria with chromogenic substrates for β-D-ribofuranosidase” (priority 2001, dated 2010):
Structures can show the parent of a compound that is named as a salt.

Columns and labels:
Experiment in all cases: Hydrolysis on Columbia agar with ferric ammonium citrate
Type in all cases: cell-based
Bacillus licusniforms = Bacillus licusniforms NCIMB 9375
Protocol: (§1) The chromogenic β-D-ribofuranoside substrate was added to Columbia agar at a substrate concentration of 300 mg/l. Ferric ammonium citrate was included at 500 mg/l. All ingredients were autoclaved at 116° C. for 20 minutes to ensure sterilisation. Agar plates were then prepared in 90 mm petri dishes. The substrate caused a yellow colouration of the agar.
(§2) For each strain tested, a bacterial suspension was prepared in sterile deionised water at an inoculum of approximately 1.5×10^8 colony forming units per ml. This was achieved using a densitometer. 1 μl of each bacterial suspension was then inoculated onto each plate using a multipoint inoculator. Strains were inoculated in parallel onto Columbia agar containing ferric ammonium citrate with no substrate (negative control).
(§3) After 18 hours incubation, strains were examined visually for the presence of colour. Any strains producing a black colouration on substrate containing media but not on the negative control plates were deemed to be hydrolysing the substrate.

Enterococcus raffinosis = Enterococcus raffinosis NCTC 13192
Protocol: as §1, §2, §3

[1] = system: Staphylococcus haemolyticus
Protocol: as §1, §2, §3

Vibrio cincinnatiensis = Vibrio cincinnatiensis NCTC 12012
Protocol: as §1, §2, §3

Enterococcus mundtii = Enterococcus mundtii NCTC 12363
Protocol: as §1, §2, §3

Streptococcus crista = Streptococcus crista NCTC 12479
Protocol: as §1, §2, §3

Streptococcus gordonii = Streptococcus gordonii NCTC 7865
Protocol: as §1, §2, §3

[2] = system: Staphylococcus epidermidis
Protocol: as §1, §2, §3

Vibrio furnissii = Vibrio furnissii NCTC 11218
Protocol: as §1, §2, §3

Vibrio hollisae = Vibrio hollisae NCTC 11640
Protocol: as §1, §2, §3

[3] = system: Streptococcus vestibularis; settings: Streptococcus vestibularis NCTC 12166
Protocol: as §1, §2, §3

Streptococcus salivarius = Streptococcus salivarius NCTC 8618
Protocol: as §1, §2, §3

P. mirabilis = system: P. mirabilis
Protocol: as §1, §2, §3

Vibrio cholerae = system: Vibrio cholerae
Protocol: as §1, §2, §3

Vibrio parahaemolyticus = system: Vibrio parahaemolyticus
Protocol: as §1, §2, §3

Providencia stuartii = system: Providencia stuartii
Protocol: as §1, §2, §3

P. penneri = P. penneri PPE 1
Protocol: as §1, §2, §3

Enterococcus gallinarum = Enterococcus gallinarum NCTC 11428
Protocol: as §1, §2, §3

Vibrio anguillarum = Vibrio anguillarum NCTC 12159
Protocol: as §1, §2, §3

Shigella genus = system: Shigella genus
Protocol: as §1, §2, §3

Listeria seerigeri = Listeria seerigeri PHLS wild
Protocol: as §1, §2, §3

Streptococcus agalactiae = Streptococcus agalactiae NCTC 8181
Protocol: as §1, §2, §3

P. vulgaris = system: P. vulgaris
Protocol: as §1, §2, §3

Streptococcus pneumoniae = Streptococcus pneumoniae NCTC 7465
Protocol: as §1, §2, §3

A. calcoaceticus = A. calcoaceticus ATCC 7844
Protocol: as §1, §2, §3

Y. enterocolitica = system: Y. enterocolitica
Protocol: as §1, §2, §3

[4] = system: Arcanobacterium haemolyticus
Protocol: as §1, §2, §3

[5] = system: Streptococcus constellatus; settings: Streptococcus constellatus NCTC 11325
Protocol: as §1, §2, §3

[6] = system: Haemolytic streptococcus B
Protocol: as §1, §2, §3

[7] = system: Providencia alcalifaciens
Protocol: as §1, §2, §3

Enterococcus faecalis = system: Enterococcus faecalis
Protocol: as §1, §2, §3

P. rettgeri = P. rettgeri NCTC 7475
Protocol: as §1, §2, §3

O=c1cc(-c2ccc(OC3OC(CO)C(O)C3O)c(O)c2)oc2ccccc12 [DHF-riboside, 3′,4′-Dihydroxyflavone-4′-β-D-ribofuranoside sodium salt]
++: β-Ribofuranoside (hydrolysis) ([2]; Staphylococcus epidermidis RB60)
−: β-Ribofuranoside (hydrolysis) (Bacillus licusniforms) | β-Riboside (hydrolysis) (Vibrio cincinnatiensis) | β-Ribofuranoside (hydrolysis) (Streptococcus crista) | β-Ribofuranoside (hydrolysis) (Streptococcus gordonii) | β-Riboside (hydrolysis) (Vibrio furnissii) | β-Riboside (hydrolysis) (Vibrio hollisae) | β-Ribofuranoside (hydrolysis) [3] | β-Ribofuranoside (hydrolysis) (Streptococcus salivarius) | β-Riboside (hydrolysis) (P. mirabilis; P. mirabilis NCTC 10975) | β-Riboside (hydrolysis) (P. mirabilis; P. mirabilis PMI 1) | β-Riboside (hydrolysis) (P. mirabilis; P. mirabilis PMI 2) | β-Riboside (hydrolysis) (Vibrio cholerae; Vibrio cholera NCTC 6585) | β-Riboside (hydrolysis) (Vibrio cholerae; Vibrio cholera NCTC 7270) | β-Riboside (hydrolysis) (Vibrio cholerae; Vibrio cholera NCTC 8021) | β-Riboside (hydrolysis) (Vibrio cholerae; Vibrio cholera NCTC 10732) | β-Riboside (hydrolysis) (Vibrio cholerae; Vibrio cholera NCTC 12945) | β-Riboside (hydrolysis) (Vibrio cholerae; Vibrio cholerae NCTC 7254) | β-Riboside (hydrolysis) (Vibrio cholerae; Vibrio cholerae NCTC 8042) | β-Riboside (hydrolysis) (Vibrio cholerae; Vibrio cholerae NCTC 10255) | β-Riboside (hydrolysis) (Vibrio cholerae; Vibrio cholerae NCTC 10954) | β-Riboside (hydrolysis) (Vibrio parahaemolyticus; Vibrio parahaemolyticus NCTC 10441) | β-Riboside (hydrolysis) (Vibrio parahaemolyticus; Vibrio parahaemolyticus NCTC 10884) | β-Riboside (hydrolysis) (Vibrio parahaemolyticus; Vibrio parahaemolyticus NCTC 10903) | β-Riboside (hydrolysis) (Vibrio parahaemolyticus; Vibrio parahaemolyticus NCTC 11344) | β-Riboside (hydrolysis) (Vibrio parahaemolyticus; Vibrio parahaemolyticus NCTC 12205) | β-Riboside (hydrolysis) (P. penneri) | β-Riboside (hydrolysis) (Vibrio anguillarum) | β-Ribofuranoside (hydrolysis) (Listeria seerigeri) | β-Ribofuranoside (hydrolysis) (Streptococcus agalactiae) | β-Riboside (hydrolysis) (P. vulgaris; P. vulgaris PVU 2) | β-Riboside (hydrolysis) (P. vulgaris; P. vulgaris PVU 4) | β-Riboside (hydrolysis) (P. vulgaris; P. vulgaris PVU 5) | β-Ribofuranoside (hydrolysis) (Streptococcus pneumoniae) | β-Riboside (hydrolysis) (A. calcoaceticus) | β-Riboside (hydrolysis) (Y. enterocolitica; Y. enterocolitica NCTC 10460) | β-Riboside (hydrolysis) (Y. enterocolitica; Y. enterocolitica NCTC 11176) | β-Riboside (hydrolysis) (Y. enterocolitica; Y. enterocolitica NCTC 11177) | β-Riboside (hydrolysis) (Y. enterocolitica; Y. enterocolitica NCTC 11600) | β-Ribofuranoside (hydrolysis) [5] | β-Ribofuranoside (hydrolysis) ([6]; Reference No. 1) | β-Ribofuranoside (hydrolysis) ([6]; Reference No. 2) | β-Ribofuranoside (hydrolysis) ([6]; Reference No. 3) | β-Riboside (hydrolysis) ([7]; Providencia alcalifaciens PAL 2) | β-Ribofuranoside (hydrolysis) (Enterococcus faecalis; Reference No. 1) | β-Ribofuranoside (hydrolysis) (Enterococcus faecalis; Reference No. 7)
uniformly positive: β-D-ribofuranosidase activity (Shigella genus)
active: Activity with the substrate ([4]; Arcanobacterium haemolyticum)
+: β-Ribofuranoside (hydrolysis) (Enterococcus raffinosis) | β-Ribofuranoside (hydrolysis) ([1]; Staphylococcus haemolyticus RB 66) | β-Ribofuranoside (hydrolysis) ([1]; Staphylococcus haemolyticus RB 67) | β-Ribofuranoside (hydrolysis) ([1]; Staphylococcus haemolyticus RB 68) | β-Ribofuranoside (hydrolysis) ([1]; Staphylococcus haemolyticus RB 69) | β-Ribofuranoside (hydrolysis) ([1]; Staphylococcus haemolyticus RB 70) | β-Ribofuranoside (hydrolysis) (Enterococcus mundtii) | β-Ribofuranoside (hydrolysis) ([2]; Staphylococcus epidermidis RB62) | β-Ribofuranoside (hydrolysis) ([2]; Staphylococcus epidermidis RB63) | β-Ribofuranoside (hydrolysis) ([2]; Staphylococcus epidermidis RB64) | β-Ribofuranoside (hydrolysis) ([2]; Staphylococcus epidermidis RB65) | β-Riboside (hydrolysis) (Providencia stuartii; Providencia stuartii PST 1) | β-Riboside (hydrolysis) (Providencia stuartii; Providencia stuartii PST 2) | β-Ribofuranoside (hydrolysis) (Enterococcus gallinarum) | β-Ribofuranoside (hydrolysis) ([4]; Arcanobacterium haemolyticus NCTC 52) | β-Riboside (hydrolysis) ([7]; Providencia alcalifaciens PAL 1) | β-Ribofuranoside (hydrolysis) (Enterococcus faecalis; Reference No. 2) | β-Ribofuranoside (hydrolysis) (Enterococcus faecalis; Reference No. 3) | β-Ribofuranoside (hydrolysis) (Enterococcus faecalis; Reference No. 4) | β-Ribofuranoside (hydrolysis) (Enterococcus faecalis; Reference No. 5) | β-Ribofuranoside (hydrolysis) (Enterococcus faecalis; Reference No. 6) | β-Riboside (hydrolysis) (P. rettgeri)
